# Test results as given in patent US12098145B2 (Libra Therapeutics, Inc., priority 2022, dated 2024).
# Structures can show the parent of a compound that is named as a salt. Where two headings read alike, the source gives them in different places.
# How the values were obtained:
# TFEB = TFEB translocation assay (TFEB reporter in U2OS cells, imaging); format: cell-based; conditions: Homo sapiens, read-out: TFEB Translocation pEC50 (converted)
# Outline: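 Activity expresses the mean nuclear-to-cytosolic reporter ratio scaled between DMSO (0%) and Torin-1 (100%) controls. Read-out came from high-content imaging of fixed, Hoechst-counterstained U2OS cells carrying mRFP-tagged TFEB after 2 h compound exposure at 37 °C in Opti-MEM with 0.015% Tween 80 and 0.5% DMSO.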
# TRPML1 = biological target: T1, TRPML1 (Homo sapiens, UniProt Q9GZU1); experiment: Cellular TRPML1 assay (FLIPR, GCaMP6f calcium read-out); format: cell-based; conditions: HEKT-REx/GCaMP6f/TRPML1 cells, FLIPR TETRA, kinetic response over 300 seconds; read-out: TRPML1 FLIPR pEC50 (converted)
# T1 construct: expressed in transfected cells; host or cells: HEK T-REx cells stably expressing GCaMP6f and TRPML1
# Outline: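 Read-out is GCaMP6f fluorescence over 300 s after compound addition in Ca2+-free Tyrode's buffer, final DMSO 0.5%, on FLIPR Tetra. Cells are HEK T-REx stably co-expressing the indicator and TRPML1, plated 24 h earlier in Optimem + 0.5% FBS and pre-incubated ~10 min at room temperature.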
# [1] = U2OS cell line with TFEB reporter, 2 hours incubation, nucleus to cytoplasm ratio, normalized to Torin-1
# T1 sequence (Q9GZU1 whole entry): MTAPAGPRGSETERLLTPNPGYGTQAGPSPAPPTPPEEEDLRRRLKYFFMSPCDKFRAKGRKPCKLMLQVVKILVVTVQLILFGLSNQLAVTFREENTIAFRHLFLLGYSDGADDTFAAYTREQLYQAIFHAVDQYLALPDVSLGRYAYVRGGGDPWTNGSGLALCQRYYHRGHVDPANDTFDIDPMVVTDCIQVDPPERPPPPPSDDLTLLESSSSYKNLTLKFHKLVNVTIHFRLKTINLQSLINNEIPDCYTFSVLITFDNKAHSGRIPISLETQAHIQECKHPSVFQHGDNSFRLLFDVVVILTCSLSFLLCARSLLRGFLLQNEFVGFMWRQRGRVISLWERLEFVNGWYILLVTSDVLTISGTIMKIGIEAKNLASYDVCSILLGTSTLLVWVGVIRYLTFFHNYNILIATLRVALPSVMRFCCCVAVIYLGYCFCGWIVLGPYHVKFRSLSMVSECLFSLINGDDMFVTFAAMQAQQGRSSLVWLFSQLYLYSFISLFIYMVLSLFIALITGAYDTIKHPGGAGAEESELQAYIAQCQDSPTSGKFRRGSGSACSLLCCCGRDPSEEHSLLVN
SMILES,EC50 (TFEB; [1]),EC50 (TRPML1),"EC50 (TFEB; U2OS, 2 h)"
"CCN(C)Cc1oc(N2CC(CC)(OC)C2)nc1C(=O)Nc1cc(F)c(O[C@@H]2C[C@@H]3C[C@@H]3C2)c(F)c1 [Example 304, N-(4-(cis-bicyclo[3.1.0]hexan-3-yloxy)-3,5-difluorophenyl)-5-((ethyl(methyl)amino)methyl)-2-(3-ethyl-3-methoxyazetidin-1-yl)oxazole-4-carboxamide]",10 to 1000 nM,10 to 1000 nM,–
"CCN(C)Cc1oc(N2CC(C)(OC)C2)nc1C(=O)Nc1cc(F)c(OC2CC3CC(C3)C2)c(F)c1 (stereo not drawn) [Example 307, N-(4-(bicyclo[3.1.1]heptan-3-yloxy)-3,5-difluorophenyl)-5-((ethyl(methyl)amino)methyl)-2-(3-methoxy-3-methylazetidin-1-yl)oxazole-4-carboxamide hydrochloride]",10 to 1000 nM,10 to 1000 nM,–
"O=C(Nc1cc(F)c(O[C@@H]2C[C@@H]3C[C@@H]3C2)c(F)c1)c1nc(N2CCCC2)oc1CN1CCCC1 [Example 308, N-(4-(cis-bicyclo[3.1.0]hexan-3-yloxy)-3,5-difluorophenyl)-2-(pyrrolidin-1-yl)-5-(pyrrolidin-1-ylmethyl)oxazole-4-carboxamide hydrochloride]",10 to 1000 nM,10 to 1000 nM,–
"CCN(C)Cc1oc(N2CC(CC)(OC)C2)nc1C(=O)Nc1cc(O)c(OC2CC3CC(C3)C2)c(F)c1 (stereo not drawn) [Example 309, N-(4-(bicyclo[3.1.1]heptan-3-yloxy)-3-fluoro-5-hydroxyphenyl)-5-((ethyl(methyl)amino)methyl)-2-(3-ethyl-3-methoxyazetidin-1-yl)oxazole-4-carboxamide]",–,1000 to 10000 nM,1000 to 10000 nM
"O=C(Nc1cc(F)c2c(c1)CCN2C1CC2CC2C1)c1nc(N2CCCC2)oc1CC(F)(F)F (stereo not drawn) [Example 315, N-(1-(bicyclo[3.1.0]hexan-3-yl)-7-fluoroindolin-5-yl)-2-(pyrrolidin-1-yl)-5-(2,2,2-trifluoroethyl)oxazole-4-carboxamide]",10 to 1000 nM,1000 to 10000 nM,–
"CCc1oc(N2CC(CC)(CC)C2)nc1C(=O)Nc1cc(F)c2c(c1)CCN2C1CC2CC2C1 (stereo not drawn) [Example 316, N-(1-(bicyclo[3.1.0]hexan-3-yl)-7-fluoroindolin-5-yl)-2-(3,3-diethylazetidin-1-yl)-5-ethyloxazole-4-carboxamide]",10 to 1000 nM,10 to 1000 nM,–
